#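 Compound exposure: 48 hours, 5 concentrations, 96-well plates. TGI is the concentration that stops growth completely.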
# How the values were obtained:
# Assay in all cases: DTP human tumour cell line panel, 48 h
# 786-0 renal = tested on: 786-0 renal
# A498 renal = tested on: A498 renal
# A549 NSCLC = tested on: A549 NSCLC
# ACHN renal = tested on: ACHN renal
# BT-549 breast = tested on: BT-549 breast
# CAKI-1 renal = tested on: CAKI-1 renal
# CCRF-CEM leukemia = tested on: CCRF-CEM leukemia
# COLO 205 colon = tested on: COLO 205 colon
# DU-145 prostate = tested on: DU-145 prostate
# EKVX NSCLC = tested on: EKVX NSCLC
# HCC-2998 colon = tested on: HCC-2998 colon
# HCT-116 colon = tested on: HCT-116 colon
# HCT-15 colon = tested on: HCT-15 colon
# HL-60(TB) leukemia = tested on: HL-60(TB) leukemia
# HOP-62 NSCLC = tested on: HOP-62 NSCLC
# HOP-92 NSCLC = tested on: HOP-92 NSCLC
# HS 578T breast = tested on: HS 578T breast
# HT29 colon = tested on: HT29 colon
# IGROV1 ovarian = tested on: IGROV1 ovarian
# K-562 leukemia = tested on: K-562 leukemia
# KM12 colon = tested on: KM12 colon
# LOX IMVI melanoma = tested on: LOX IMVI melanoma
# M14 melanoma = tested on: M14 melanoma
# MALME-3M melanoma = tested on: MALME-3M melanoma
# MCF7 breast = tested on: MCF7 breast
# MDA-MB-231 breast = tested on: MDA-MB-231 breast
# MDA-MB-435 = tested on: MDA-MB-435
# MDA-N = tested on: MDA-N
# MOLT-4 leukemia = tested on: MOLT-4 leukemia
# NCI-H226 lung = tested on: NCI-H226 lung
# NCI-H23 lung = tested on: NCI-H23 lung
# NCI-H522 lung = tested on: NCI-H522 lung
# NCI/ADR-RES ovarian = tested on: NCI/ADR-RES ovarian
# OVCAR-3 ovarian = tested on: OVCAR-3 ovarian
# OVCAR-4 ovarian = tested on: OVCAR-4 ovarian
# OVCAR-5 ovarian = tested on: OVCAR-5 ovarian
# OVCAR-8 ovarian = tested on: OVCAR-8 ovarian
# PC-3 prostate = tested on: PC-3 prostate
# RPMI-8226 leukemia = tested on: RPMI-8226 leukemia
# RXF 393 renal = tested on: RXF 393 renal
# SF-268 CNS = tested on: SF-268 CNS
# SF-295 CNS = tested on: SF-295 CNS
# SF-539 CNS = tested on: SF-539 CNS
# SK-MEL-2 melanoma = tested on: SK-MEL-2 melanoma
# SK-MEL-28 melanoma = tested on: SK-MEL-28 melanoma
# SK-MEL-5 melanoma = tested on: SK-MEL-5 melanoma
# SK-OV-3 ovarian = tested on: SK-OV-3 ovarian
# SN12C renal = tested on: SN12C renal
# SNB-19 CNS = tested on: SNB-19 CNS
# SNB-75 CNS = tested on: SNB-75 CNS
# SW-620 colon = tested on: SW-620 colon
# T-47D breast = tested on: T-47D breast
# TK-10 renal = tested on: TK-10 renal
# U251 CNS = tested on: U251 CNS
# UACC-257 melanoma = tested on: UACC-257 melanoma
# UACC-62 melanoma = tested on: UACC-62 melanoma
# UO-31 renal = tested on: UO-31 renal
# NCI-H460 lung = tested on: NCI-H460 lung
# SR leukemia = tested on: SR leukemia
structure (smiles),measurement,setting,value
C=C1CC[C@@H]2[C@](C)(COC(=O)CCC(=O)O)CCC[C@@]2(C)[C@@H]1CCC1=CC(=O)OC1,TGI,786-0 renal,> 100 µM
same,TGI,A498 renal,> 100 µM
same,TGI,A549 NSCLC,> 100 µM
same,TGI,ACHN renal,> 100 µM
same,TGI,BT-549 breast,> 100 µM
same,TGI,CAKI-1 renal,> 100 µM
same,TGI,CCRF-CEM leukemia,> 100 µM
same,TGI,COLO 205 colon,> 100 µM
same,TGI,DU-145 prostate,38.7 µM
same,TGI,EKVX NSCLC,> 100 µM
same,TGI,HCC-2998 colon,> 100 µM
same,TGI,HCT-116 colon,> 100 µM
same,TGI,HCT-15 colon,> 100 µM
same,TGI,HL-60(TB) leukemia,> 100 µM
same,TGI,HOP-62 NSCLC,> 100 µM
same,TGI,HOP-92 NSCLC,> 100 µM
same,TGI,HS 578T breast,> 100 µM
same,TGI,HT29 colon,> 100 µM
same,TGI,IGROV1 ovarian,> 100 µM
same,TGI,K-562 leukemia,> 100 µM
same,TGI,KM12 colon,> 100 µM
same,TGI,LOX IMVI melanoma,> 100 µM
same,TGI,M14 melanoma,> 100 µM
same,TGI,MALME-3M melanoma,> 100 µM
same,TGI,MCF7 breast,> 100 µM
same,TGI,MDA-MB-231 breast,> 100 µM
same,TGI,MDA-MB-435,> 100 µM
same,TGI,MDA-N,> 100 µM
same,TGI,MOLT-4 leukemia,> 100 µM
same,TGI,NCI-H226 lung,> 100 µM
same,TGI,NCI-H23 lung,> 100 µM
same,TGI,NCI-H522 lung,> 100 µM
same,TGI,NCI/ADR-RES ovarian,> 100 µM
same,TGI,OVCAR-3 ovarian,> 100 µM
same,TGI,OVCAR-4 ovarian,> 100 µM
same,TGI,OVCAR-5 ovarian,> 100 µM
same,TGI,OVCAR-8 ovarian,> 100 µM
same,TGI,PC-3 prostate,> 100 µM
same,TGI,RPMI-8226 leukemia,> 100 µM
same,TGI,RXF 393 renal,> 100 µM
same,TGI,SF-268 CNS,> 100 µM
same,TGI,SF-295 CNS,> 100 µM
same,TGI,SF-539 CNS,> 100 µM
same,TGI,SK-MEL-2 melanoma,> 100 µM
same,TGI,SK-MEL-28 melanoma,> 100 µM
same,TGI,SK-MEL-5 melanoma,> 100 µM
same,TGI,SK-OV-3 ovarian,> 100 µM
same,TGI,SN12C renal,> 100 µM
same,TGI,SNB-19 CNS,> 100 µM
same,TGI,SNB-75 CNS,> 100 µM
same,TGI,SW-620 colon,> 100 µM
same,TGI,T-47D breast,> 100 µM
same,TGI,TK-10 renal,> 100 µM
same,TGI,U251 CNS,> 100 µM
same,TGI,UACC-257 melanoma,> 100 µM
same,TGI,UACC-62 melanoma,> 100 µM
same,TGI,UO-31 renal,> 100 µM
Cc1cc(=O)oc2c(C)c3oc(CBr)cc3cc12,TGI,786-0 renal,32 µM
same,TGI,A549 NSCLC,33.3 µM
same,TGI,ACHN renal,29.8 µM
same,TGI,BT-549 breast,33.5 µM
same,TGI,CAKI-1 renal,31.8 µM
same,TGI,CCRF-CEM leukemia,54.2 µM
same,TGI,COLO 205 colon,34.2 µM
same,TGI,DU-145 prostate,> 100 µM
same,TGI,EKVX NSCLC,> 100 µM
same,TGI,HCC-2998 colon,31.9 µM
same,TGI,HCT-116 colon,39.4 µM
same,TGI,HCT-15 colon,44.3 µM
same,TGI,HL-60(TB) leukemia,> 100 µM
same,TGI,HOP-62 NSCLC,33.6 µM
same,TGI,HS 578T breast,> 100 µM
same,TGI,HT29 colon,79.9 µM
same,TGI,IGROV1 ovarian,33.3 µM
same,TGI,K-562 leukemia,46.7 µM
same,TGI,KM12 colon,42.1 µM
same,TGI,LOX IMVI melanoma,31.1 µM
same,TGI,M14 melanoma,34.8 µM
same,TGI,MALME-3M melanoma,40.3 µM
same,TGI,MCF7 breast,> 100 µM
same,TGI,MDA-MB-231 breast,84.7 µM
same,TGI,MDA-MB-435,37.7 µM
same,TGI,MDA-N,40.9 µM
same,TGI,MOLT-4 leukemia,54.3 µM
same,TGI,NCI-H226 lung,34 µM
same,TGI,NCI-H23 lung,40 µM
same,TGI,NCI-H460 lung,36.4 µM
same,TGI,NCI-H522 lung,30.1 µM
same,TGI,NCI/ADR-RES ovarian,58.1 µM
same,TGI,OVCAR-3 ovarian,> 100 µM
same,TGI,OVCAR-4 ovarian,65.1 µM
same,TGI,OVCAR-5 ovarian,36.8 µM
same,TGI,OVCAR-8 ovarian,66.7 µM
same,TGI,PC-3 prostate,35 µM
same,TGI,RPMI-8226 leukemia,42.6 µM
same,TGI,SF-268 CNS,51.5 µM
same,TGI,SF-295 CNS,34.3 µM
same,TGI,SF-539 CNS,50.7 µM
same,TGI,SK-MEL-2 melanoma,54 µM
same,TGI,SK-MEL-28 melanoma,43.6 µM
same,TGI,SK-MEL-5 melanoma,26 µM
same,TGI,SK-OV-3 ovarian,75.4 µM
same,TGI,SN12C renal,42.2 µM
same,TGI,SNB-19 CNS,> 100 µM
same,TGI,SNB-75 CNS,47.4 µM
same,TGI,SR leukemia,> 100 µM
same,TGI,SW-620 colon,30.2 µM
same,TGI,T-47D breast,60.8 µM
same,TGI,TK-10 renal,89.6 µM
same,TGI,U251 CNS,47.1 µM
same,TGI,UACC-257 melanoma,52.5 µM
same,TGI,UACC-62 melanoma,33.9 µM
same,TGI,UO-31 renal,30.3 µM

# Reference: PubChem BioAssay (NCI)
